{"source": "paper PMC3853718", "about": "(Journal of Translational Medicine, 2013)", "assay": "clinical", "details": "human, plasma"}
{"compound": "CCc1cnn2c(NCc3ccc[n+]([O-])c3)cc(N3CCCC[C@H]3CCO)nc12", "note": "[dinaciclib]", "values": [{"measurement": "AUC(0-inf)", "setting": "intravenous, 0.33 mg/m2", "result": 43, "unit": "ng·h/mL"}, {"measurement": "AUC(0-t)", "setting": "intravenous, 0.33 mg/m2", "result": 42.8, "unit": "ng·h/mL"}, {"measurement": "Cmax", "setting": "intravenous, 0.33 mg/m2", "result": 11.1, "unit": "ng/mL"}, {"measurement": "Tmax", "setting": "intravenous, 0.33 mg/m2", "result": 1, "unit": "h"}, {"measurement": "AUC(0-inf)", "setting": "intravenous, 0.66 mg/m2", "result": 27.6, "unit": "ng·h/mL"}, {"measurement": "AUC(0-t)", "setting": "intravenous, 0.66 mg/m2", "result": 28.4, "unit": "ng·h/mL"}, {"measurement": "Cmax", "setting": "intravenous, 0.66 mg/m2", "result": 13.2, "unit": "ng/mL"}, {"measurement": "Tmax", "setting": "intravenous, 0.66 mg/m2", "result": 1, "unit": "h"}, {"measurement": "half-life", "setting": "intravenous, 0.66 mg/m2", "result": 1.67, "unit": "h"}, {"measurement": "AUC(0-inf)", "setting": "intravenous, 1.32 mg/m2", "result": 134, "unit": "ng·h/mL"}, {"measurement": "AUC(0-t)", "setting": "intravenous, 1.32 mg/m2", "result": 134, "unit": "ng·h/mL"}, {"measurement": "Cmax", "setting": "intravenous, 1.32 mg/m2", "result": 69.5, "unit": "ng/mL"}, {"measurement": "Tmax", "setting": "intravenous, 1.32 mg/m2", "result": 1, "unit": "h"}, {"measurement": "half-life", "setting": "intravenous, 1.32 mg/m2", "result": 3.38, "unit": "h"}, {"measurement": "AUC(0-inf)", "setting": "intravenous, 1.85 mg/m2", "result": 216, "unit": "ng·h/mL"}, {"measurement": "AUC(0-t)", "setting": "intravenous, 1.85 mg/m2", "result": 216, "unit": "ng·h/mL"}, {"measurement": "Cmax", "setting": "intravenous, 1.85 mg/m2", "result": 108, "unit": "ng/mL"}, {"measurement": "Tmax", "setting": "intravenous, 1.85 mg/m2", "result": 2, "unit": "h"}, {"measurement": "half-life", "setting": "intravenous, 1.85 mg/m2", "result": 2.66, "unit": "h"}, {"measurement": "Cmax", "setting": "intravenous, 2.59 mg/m2", "result": 104, "unit": "ng/mL"}, {"measurement": "Tmax", "setting": "intravenous, 2.59 mg/m2", "result": 1, "unit": "h"}, {"measurement": "half-life", "setting": "intravenous, 2.59 mg/m2", "result": 3.6, "unit": "h"}, {"measurement": "AUC(0-inf)", "setting": "intravenous, 3.63 mg/m2", "result": 431, "unit": "ng·h/mL"}, {"measurement": "AUC(0-t)", "setting": "intravenous, 3.63 mg/m2", "result": 405, "unit": "ng·h/mL"}, {"measurement": "Cmax", "setting": "intravenous, 3.63 mg/m2", "result": 163, "unit": "ng/mL"}, {"measurement": "Tmax", "setting": "intravenous, 3.63 mg/m2", "result": 1, "unit": "h"}, {"measurement": "half-life", "setting": "intravenous, 3.63 mg/m2", "result": 3.59, "unit": "h"}, {"measurement": "AUC(0-inf)", "setting": "intravenous, 5.08 mg/m2", "result": 327, "unit": "ng·h/mL"}, {"measurement": "AUC(0-t)", "setting": "intravenous, 5.08 mg/m2", "result": 327, "unit": "ng·h/mL"}, {"measurement": "Cmax", "setting": "intravenous, 5.08 mg/m2", "result": 173, "unit": "ng/mL"}, {"measurement": "Tmax", "setting": "intravenous, 5.08 mg/m2", "result": 2, "unit": "h"}, {"measurement": "half-life", "setting": "intravenous, 5.08 mg/m2", "result": 3.19, "unit": "h"}, {"measurement": "AUC(0-inf)", "setting": "intravenous, 7.11 mg/m2", "result": 543, "unit": "ng·h/mL"}, {"measurement": "AUC(0-t)", "setting": "intravenous, 7.11 mg/m2", "result": 542, "unit": "ng·h/mL"}, {"measurement": "Cmax", "setting": "intravenous, 7.11 mg/m2", "result": 250, "unit": "ng/mL"}, {"measurement": "Tmax", "setting": "intravenous, 7.11 mg/m2", "result": 2, "unit": "h"}, {"measurement": "half-life", "setting": "intravenous, 7.11 mg/m2", "result": 3.04, "unit": "h"}, {"measurement": "AUC(0-inf)", "setting": "intravenous, 10 mg/m2", "result": 687, "unit": "ng·h/mL"}, {"measurement": "AUC(0-t)", "setting": "intravenous, 10 mg/m2", "result": 694, "unit": "ng·h/mL"}, {"measurement": "Cmax", "setting": "intravenous, 10 mg/m2", "result": 319, "unit": "ng/mL"}, {"measurement": "Tmax", "setting": "intravenous, 10 mg/m2", "result": 2, "unit": "h"}, {"measurement": "half-life", "setting": "intravenous, 10 mg/m2", "result": 3.02, "unit": "h"}, {"measurement": "AUC(0-inf)", "setting": "intravenous, 12 mg/m2", "result": 1150, "unit": "ng·h/mL"}, {"measurement": "AUC(0-t)", "setting": "intravenous, 12 mg/m2", "result": 1150, "unit": "ng·h/mL"}, {"measurement": "Cmax", "setting": "intravenous, 12 mg/m2", "result": 525, "unit": "ng/mL"}, {"measurement": "Tmax", "setting": "intravenous, 12 mg/m2", "result": 2, "unit": "h"}, {"measurement": "half-life", "setting": "intravenous, 12 mg/m2", "result": 3.28, "unit": "h"}, {"measurement": "AUC(0-inf)", "setting": "intravenous, 14 mg/m2", "result": 2020, "unit": "ng·h/mL"}, {"measurement": "AUC(0-t)", "setting": "intravenous, 14 mg/m2", "result": 2020, "unit": "ng·h/mL"}, {"measurement": "Cmax", "setting": "intravenous, 14 mg/m2", "result": 821, "unit": "ng/mL"}, {"measurement": "Tmax", "setting": "intravenous, 14 mg/m2", "result": 1, "unit": "h"}, {"measurement": "half-life", "setting": "intravenous, 14 mg/m2", "result": 3.09, "unit": "h"}, {"measurement": "half-life", "setting": "iv", "result": "1.5 to 3.6", "unit": "h"}]}
